The test system of the test is human subject suffering from rheumatoid arthritis. Briefly: Treatment of a human subject with rheumatoid arthritis, oral tablets (Example A). It is filed as in vivo. The conditions noted are these: tablet with 15 mg compound, three tablets per day orally for 2 years. As to the method: A tablet composition for oral administration, according to the present invention, is made comprising:
A human subject weighing 60 kg (132 lbs), suffering from rheumatoid arthritis, is treated by a method of this invention. Specifically, for 2 years, a regimen of three tablets per day is administered orally to said subject.

In the case of `COc1ccc(-c2ccc(C(F)(F)CCC(=O)O)cc2)cc1` [Example 1, 4,4-Difluoro-4-(4′-methoxy-biphenyl-4-yl)-butyric Acid], the “examination at the end of the treatment period: inflammation, mobility, pain” value was “reduced inflammation and improved mobility without concomitant pain”.

These data come from US6852751B2, “Difluorobutyric acid metalloprotease inhibitors” (The Procter & Gamble Company, priority 2000, dated 2005).
